# Laboratory results reported in US20260308185A1, “STAT DEGRADERS AND USES THEREOF” (Recludix Pharma, Inc., priority 2023, published 2026).
# Key:
# [1] = target: T1, Recombinant STAT6 protein (STAT6(W123-T658)) (Homo sapiens, UniProt P42226); test: STAT6 Fluorescence Polarization (FP) Assay; type: binding; details: 250 nM STAT6(W123-T658), 2 nM 5-FAM-Ap[…]-NH2 probe, pH 7.4, 45-minute incubation at room temperature
# T1 construct: Recombinant STAT6 protein (STAT6(W123-T658))
# T1 sequence (P42226 123-658): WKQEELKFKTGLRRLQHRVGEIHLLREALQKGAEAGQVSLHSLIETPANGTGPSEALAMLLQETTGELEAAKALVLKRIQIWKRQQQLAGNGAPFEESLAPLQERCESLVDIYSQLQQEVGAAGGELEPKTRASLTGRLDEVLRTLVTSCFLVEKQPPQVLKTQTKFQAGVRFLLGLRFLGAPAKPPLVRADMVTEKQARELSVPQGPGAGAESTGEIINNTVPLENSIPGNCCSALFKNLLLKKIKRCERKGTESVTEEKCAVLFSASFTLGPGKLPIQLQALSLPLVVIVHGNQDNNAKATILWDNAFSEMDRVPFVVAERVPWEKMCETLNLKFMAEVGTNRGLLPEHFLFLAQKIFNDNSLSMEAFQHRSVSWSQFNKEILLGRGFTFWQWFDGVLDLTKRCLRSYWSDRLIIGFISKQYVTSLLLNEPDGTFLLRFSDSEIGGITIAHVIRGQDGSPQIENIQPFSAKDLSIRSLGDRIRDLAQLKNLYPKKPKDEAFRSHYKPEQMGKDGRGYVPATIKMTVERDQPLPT
# Procedure: An FP assay was developed to determine IC50 values for test substances. Recombinant STAT6 protein (STAT6(W123-T658)) at 250 nM was combined with a fluorescently labeled, phosphotyrosine peptide probe (5-FAM-Ap[…]-NH2) at 2 nM in FP buffer (10 mM HEPES pH 7.4, 50 mM NaCl, 1 mM EDTA, 0.05% Tween 20, 2 mM DTT). 50 μL of STAT6-probe mixture was added to serial diluted compounds in black, 96-well plates (Greiner BioOne 655076) to a final concentration of 1% DMSO. Reaction components were mixed, and FP w as measured after 45-minute incubation at room temperature using a Tecan Spark multimode plate reader. FP signal (mP) was plotted against the log concentration of the test substances and IC50 values were calculated by nonlinear regression analysis using GraphPad Prism software. For STAT6 FP assay. A=≤300 nM; B=>300-3000 nM; C=>3-30 μM; and D=>30 μM.
# [2] = target: T2, Recombinant STAT3 protein (STAT3(G127-I722)) (Homo sapiens, UniProt P40763); test: STAT3 Fluorescence Polarization (FP) Assay; type: binding; details: 25 nM STAT3(G127-I722), 2 nM 5-FAM-GpYLPQTV-NH2 probe, pH 7.4, 45-minute incubation at room temperature
# T2 construct: Recombinant STAT3 protein (STAT3(G127-I722))
# Procedure: An FP assay was developed to determine IC50 values for test substances. Recombinant STAT3 protein (STAT3(G127-I722)) at 25 nM was combined with a fluorescently labeled, phosphotyrosine peptide probe (5-FAM-GpYLPQTV-NH2) at 2 nM in FP buffer (10 mM HEPES pH 7.4, 50 mM NaCl. 1 mM EDTA, 0.05% Tween 20, 2 mM DTT). 50 μL of STAT3-probe mixture was added to serial diluted compounds in black, 96-well plates (Greiner BioOne 655076) to a final concentration of 1% DMSO. Reaction components were mixed, and FP was measured after 45-minute incubation at room temperature using a Tecan Spark multimode plate reader. FP signal (mP) was plotted against the log concentration of the test substances and IC50 values were calculated by nonlinear regression analysis using GraphPad Prism software. For STAT3 FP assay, A=≤100 nM; B=>100-1000 nM; C=>1-10 μM; and D=>10 μM.
# [3] = system: pSTAT3 (pY705-STAT3) in PBMC; test: MSD-pSTAT-PBMC Assay (pSTAT3); type: cell-based; details: compound 3 hrs, then 10 ng/mL IL-6 for 10 min
# Source text: Cryopreserved Peripheral Blood Mononuclear Cells (PBMC) are from AllCells. Recombinant Human […] and IL-6 are from Peprotech. Mouse monoclonal anti-STAT3 antibody, rabbit monoclonal anti-pY705-STAT3 antibody, rabbit monoclonal Anti-pY641-STAT6 antibody, and lysis buffer are from Cell Signaling Technology (CST). Mouse monoclonal anti-STAT6 antibody is from BioLegend. Assay plates, blocker, and anti-rabbit secondary antibody are from Meso Scale Discovery (MSD).
# Cryopreserved PBMCs were thawed out and allowed to recover overnight in IMDM+10% heat-inactivated FBS prior to plating 50,000 (STAT3) or 25,000 (STAT6) cells per well in 96-well U-bottom tissue culture plates. Cells were treated with compound for 3 hrs, then stimulated with 10 ng/mL IL-6 (STAT3) or 1 ng/mL IL-4 (STAT6) for 10 min. Cells were then spun down and washed with ice-cold PBS prior to lysing the cell pellet with 1× lysis buffer (CST) with 1× HALT protease and phosphatase inhibitor cocktail (Thermo). Lysates were transferred to and incubated overnight at 4° C. with shaking in QuickPlex 96-well high bind assay plates (MSD) pre-coated overnight with 30 μL per well of 0.6 μg/mL mouse monoclonal anti-STAT3 antibody (STAT3) or 2 μg/mL mouse monoclonal anti-STAT6 antibody (STAT6) in 1×PBS, and pre-blocked for 1 hour with 3% Blocker-A (MSD). Captured protein in the assay plates were then washed and probed with 25 μL per well of 0.25 μg/ml rabbit monoclonal anti-pY705-STAT3 antibody (STAT3) or 0.18 μg/ml rabbit monoclonal Anti-pY641-STAT6 antibody (STAT6) in 1% Blocker-A for 1 hour at room temperature with shaking, then washed and probed with 25 ul per well of 1 ug/ml Sulfo-TAG Labeled Goat Anti-Rabbit Antibody (MSD) in 1% Blocker-A for 1 hour at room temperature with shaking. Assay plates were then washed and 150 μL of 1× Read Buffer-T (MSD) was added to each well prior to reading on an SQ120 MSD Plate Reader. Assay signal from each sample was subtracted by the signal from unstimulated control wells and normalized to DMSO control wells, IC50 values were calculated using Graph Pad Prism Dose-Response Nonlinear Regression with variable slope. For both pSTAT3 and pSTAT6 A=≤100 nM; B=>100-1000 nM; C=>1000-3000 nM; and D=>3 μM.
# T2 sequence (P40763 127-722): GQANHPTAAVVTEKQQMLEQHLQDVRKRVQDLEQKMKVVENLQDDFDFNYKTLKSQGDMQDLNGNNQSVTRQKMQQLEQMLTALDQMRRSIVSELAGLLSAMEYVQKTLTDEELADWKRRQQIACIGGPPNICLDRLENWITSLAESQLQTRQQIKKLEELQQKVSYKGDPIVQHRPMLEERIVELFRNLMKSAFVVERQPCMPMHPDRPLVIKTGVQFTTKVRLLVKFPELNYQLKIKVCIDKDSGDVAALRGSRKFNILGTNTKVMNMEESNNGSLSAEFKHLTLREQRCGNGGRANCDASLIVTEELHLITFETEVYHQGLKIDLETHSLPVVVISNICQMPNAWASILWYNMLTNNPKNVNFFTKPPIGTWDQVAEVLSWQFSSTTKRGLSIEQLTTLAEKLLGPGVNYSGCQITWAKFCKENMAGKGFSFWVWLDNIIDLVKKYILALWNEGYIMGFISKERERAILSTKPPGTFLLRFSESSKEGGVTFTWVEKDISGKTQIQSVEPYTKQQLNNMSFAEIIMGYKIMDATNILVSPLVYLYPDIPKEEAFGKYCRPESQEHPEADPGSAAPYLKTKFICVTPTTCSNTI
IC50 [1] [µM],IC50 [2] [µM],Structure (SMILES),IC50 [3] [µM]
3 to 30,< 0.1,"CN(CCOc1ccc(C2CCC(=O)NC2=O)cc1)c1ccncc1C1CN(C(=O)[C@@H]2CC[C@@H]3C[C@H]4C[C@H]4C[C@H](NC(=O)c4cc5cc(C(F)(F)P(=O)(O)O)ccc5s4)C(=O)N32)C1 (stereo partly drawn) [Compound 11, ((2-(((3S,6S,7aS,8aR,9aR)-3-(3-(4-((2-(4-(2,6-dioxopiperidin-3-yl)phenoxy)ethyl)(methyl)amino)pyridin-3-yl)azetidine-1-carbonyl)-5-oxodecahydro-1H-cyclopropa[d]pyrrolo[1,2-a]azocin-6-yl)carbamoyl)benzo[b]thiophen-5-yl)difluoromethyl)phosphonic acid]",> 3
3 to 30,< 0.1,"O=C1CCC(c2ccc(OCC(=O)N3CCN(c4ccncc4C4CN(C(=O)[C@@H]5CC[C@@H]6C[C@H]7C[C@H]7C[C@H](NC(=O)c7cc8cc(C(F)(F)P(=O)(O)O)ccc8s7)C(=O)N65)C4)CC3)cc2)C(=O)N1 (stereo partly drawn) [Compound 21, ((2-(((3S,6S,7aS,8aR,9aR)-3-(3-(4-(4-(2-(4-(2,6-dioxopiperidin-3-yl)phenoxy)acetyl)piperazin-1-yl)pyridin-3-yl)azetidine-1-carbonyl)-5-oxodecahydro-1H-cyclopropa[d]pyrrolo[1,2-a]azocin-6-yl)carbamoyl)benzo[b]thiophen-5-yl)difluoromethyl)phosphonic acid]",> 3
